Source: PMC4579270, “Identification and Characterization of an Irreversible Inhibitor of CDK2” (Chemistry & Biology, 2015)

Legend:
Assay in all cases: Dundee protein kinase screen
Assay type in all cases: biochemical
[1] = biological target: PRAK (Homo sapiens, UniProt Q8IW41); conditions: read-out: %Remaining activity at 1µM NU6300
Experimental: (§1) Prior to determining its cellular activity, we carried out a screen to assess its selectivity against a panel of 131 protein kinases under conditions that would not distinguish between a reversible or irreversible mode of action. […] These 13 kinases and 29 additional kinases, selected for their known sensitivity to other inhibitors within the purine series, were then tested in a modified screening format in which the assay was repeated following a 4-hr pre-incubation (Table S3B). […] However, conformational flexibility around the active site may promote such an interaction with a residue from another part of the structure ([Martin et al., 2012]).
(§2) Table S3, Related to Figure 4. NCL-0006300 protein kinase selectivity. (A) NU6300 was tested at a single concentration of 1µM against 131 protein kinases present in a Dundee protein kinase screen (Bain et al., 2007). Values given are % activity remaining and are the average of duplicate measurements: 0-25% (red), 26-50% (yellow), 51-80% (black) and above 81% (green). The kinase domain sequences (as defined by UniProt) of […]
(§3) have a lysine residue at a position close to CDK2 Lys88 or Lys89. However, in the structure of tyrosine-protein kinase BTK (PDB ID: 3GEN) the residue equivalent to CDK2 Asp86 is Cys481 and therefore there is the potential for a covalent adduct to be formed through this side chain. Ephrin type-B receptor 3 (UniProt entry P54753) also encodes a cysteine residue (Cys717) that by sequence alignment would be predicted to be close to the CDK2 lysine pair. (B) Selected kinases were re-tested in the Dundee kinase screen against NU6300 at a single concentration of 0.5 µM both in the standard assay format and following a 4 hour pre-incubation in the presence of NU6300. Kinases which have very low activity after the 4 hour incubation so that results might not be wholly reliable are boxed in salmon. Kinases where the activity after a 4 hour pre-incubation is < 50% that in the standard assay format are highlighted in red.

[2] = biological target: CAMKKβ (Homo sapiens, UniProt Q96RR4); conditions: read-out: %Remaining activity at 1µM NU6300
Experimental: as §1, §2, §3

[3] = biological target: SIK3 (Homo sapiens, UniProt Q9Y2K2); conditions: SIK3, 1µM; read-out: %Remaining activity at 1µM NU6300
Sequence of SIK3 (Q9Y2K2 whole entry): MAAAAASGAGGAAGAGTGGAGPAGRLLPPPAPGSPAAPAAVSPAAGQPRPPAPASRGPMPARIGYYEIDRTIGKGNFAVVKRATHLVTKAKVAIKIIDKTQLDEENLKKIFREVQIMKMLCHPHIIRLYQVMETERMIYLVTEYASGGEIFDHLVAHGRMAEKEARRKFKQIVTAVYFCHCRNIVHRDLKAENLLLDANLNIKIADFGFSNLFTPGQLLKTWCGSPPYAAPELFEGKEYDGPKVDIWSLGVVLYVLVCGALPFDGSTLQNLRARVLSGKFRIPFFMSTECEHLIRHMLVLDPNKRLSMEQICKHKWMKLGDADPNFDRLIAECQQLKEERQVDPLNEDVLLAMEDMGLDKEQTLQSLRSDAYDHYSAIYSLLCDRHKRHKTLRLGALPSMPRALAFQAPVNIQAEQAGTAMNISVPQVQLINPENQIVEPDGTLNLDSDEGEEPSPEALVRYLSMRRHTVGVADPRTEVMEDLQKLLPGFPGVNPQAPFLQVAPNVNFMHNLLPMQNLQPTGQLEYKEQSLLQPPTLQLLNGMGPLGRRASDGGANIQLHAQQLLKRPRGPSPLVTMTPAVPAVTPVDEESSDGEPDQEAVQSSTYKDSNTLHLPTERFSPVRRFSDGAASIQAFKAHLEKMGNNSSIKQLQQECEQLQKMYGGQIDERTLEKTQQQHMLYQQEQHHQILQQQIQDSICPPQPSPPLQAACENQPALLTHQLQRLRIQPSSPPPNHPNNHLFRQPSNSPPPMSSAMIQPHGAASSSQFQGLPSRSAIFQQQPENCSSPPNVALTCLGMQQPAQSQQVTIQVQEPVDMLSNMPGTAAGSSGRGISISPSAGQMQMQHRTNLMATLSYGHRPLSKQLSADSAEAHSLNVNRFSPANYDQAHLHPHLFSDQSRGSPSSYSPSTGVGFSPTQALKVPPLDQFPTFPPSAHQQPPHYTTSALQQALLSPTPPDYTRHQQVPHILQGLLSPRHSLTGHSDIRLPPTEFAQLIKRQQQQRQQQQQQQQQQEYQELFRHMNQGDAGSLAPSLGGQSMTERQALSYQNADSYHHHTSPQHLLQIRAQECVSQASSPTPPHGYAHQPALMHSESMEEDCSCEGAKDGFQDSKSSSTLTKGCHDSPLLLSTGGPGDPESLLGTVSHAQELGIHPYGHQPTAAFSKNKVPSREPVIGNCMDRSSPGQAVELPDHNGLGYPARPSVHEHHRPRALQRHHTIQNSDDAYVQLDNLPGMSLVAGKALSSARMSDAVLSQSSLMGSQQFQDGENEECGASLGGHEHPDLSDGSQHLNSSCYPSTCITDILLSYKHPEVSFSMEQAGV
Experimental: as §1, §2, §3

[4] = biological target: VEG-FR1 (Homo sapiens, UniProt P17948); conditions: VEG-FR1, 1µM; read-out: %Remaining activity at 1µM NU6300
Experimental: as §1, §2, §3

[5] = biological target: SmMLCK (Homo sapiens, UniProt Q15746); conditions: read-out: %Remaining activity at 1µM NU6300
Sequence of SmMLCK (Q15746 923-1914): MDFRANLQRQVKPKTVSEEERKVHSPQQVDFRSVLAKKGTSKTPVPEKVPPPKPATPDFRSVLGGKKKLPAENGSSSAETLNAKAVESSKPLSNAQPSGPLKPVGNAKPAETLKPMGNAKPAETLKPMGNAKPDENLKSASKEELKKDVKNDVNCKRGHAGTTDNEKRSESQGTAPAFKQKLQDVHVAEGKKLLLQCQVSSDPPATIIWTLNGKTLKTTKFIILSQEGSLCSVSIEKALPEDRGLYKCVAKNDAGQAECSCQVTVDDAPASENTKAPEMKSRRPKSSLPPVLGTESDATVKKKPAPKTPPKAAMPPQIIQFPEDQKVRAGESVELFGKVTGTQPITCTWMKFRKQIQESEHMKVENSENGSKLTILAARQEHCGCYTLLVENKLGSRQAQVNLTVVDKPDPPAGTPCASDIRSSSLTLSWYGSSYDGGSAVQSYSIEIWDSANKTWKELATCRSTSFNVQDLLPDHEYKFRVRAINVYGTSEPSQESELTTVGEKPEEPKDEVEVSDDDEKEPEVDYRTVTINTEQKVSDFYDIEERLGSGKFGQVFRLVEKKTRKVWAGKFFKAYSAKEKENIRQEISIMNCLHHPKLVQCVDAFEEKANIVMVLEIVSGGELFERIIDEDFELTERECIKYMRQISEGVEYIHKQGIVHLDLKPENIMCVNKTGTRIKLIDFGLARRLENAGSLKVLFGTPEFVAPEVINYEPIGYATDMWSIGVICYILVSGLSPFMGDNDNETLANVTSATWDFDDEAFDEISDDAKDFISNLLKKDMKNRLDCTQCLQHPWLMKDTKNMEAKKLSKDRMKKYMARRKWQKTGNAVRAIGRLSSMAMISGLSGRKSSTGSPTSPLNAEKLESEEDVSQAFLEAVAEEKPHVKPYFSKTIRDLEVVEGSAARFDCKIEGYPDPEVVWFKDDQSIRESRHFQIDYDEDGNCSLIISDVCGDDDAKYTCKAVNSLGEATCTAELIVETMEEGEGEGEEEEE
Experimental: as §1, §2, §3

[6] = biological target: MNK1 (Homo sapiens, UniProt Q9BUB5); conditions: MNK1, 1µM; read-out: %Remaining activity at 1µM NU6300
Experimental: as §1, §2, §3

[7] = biological target: SGK1 (Homo sapiens, UniProt O00141); conditions: SGK1, 1µM; read-out: %Remaining activity at 1µM NU6300
Experimental: as §1, §2, §3

[8] = biological target: IRAK1 (Homo sapiens, UniProt P51617); conditions: IRAK1, 1µM; read-out: %Remaining activity at 1µM NU6300
Sequence of IRAK1 (P51617 whole entry): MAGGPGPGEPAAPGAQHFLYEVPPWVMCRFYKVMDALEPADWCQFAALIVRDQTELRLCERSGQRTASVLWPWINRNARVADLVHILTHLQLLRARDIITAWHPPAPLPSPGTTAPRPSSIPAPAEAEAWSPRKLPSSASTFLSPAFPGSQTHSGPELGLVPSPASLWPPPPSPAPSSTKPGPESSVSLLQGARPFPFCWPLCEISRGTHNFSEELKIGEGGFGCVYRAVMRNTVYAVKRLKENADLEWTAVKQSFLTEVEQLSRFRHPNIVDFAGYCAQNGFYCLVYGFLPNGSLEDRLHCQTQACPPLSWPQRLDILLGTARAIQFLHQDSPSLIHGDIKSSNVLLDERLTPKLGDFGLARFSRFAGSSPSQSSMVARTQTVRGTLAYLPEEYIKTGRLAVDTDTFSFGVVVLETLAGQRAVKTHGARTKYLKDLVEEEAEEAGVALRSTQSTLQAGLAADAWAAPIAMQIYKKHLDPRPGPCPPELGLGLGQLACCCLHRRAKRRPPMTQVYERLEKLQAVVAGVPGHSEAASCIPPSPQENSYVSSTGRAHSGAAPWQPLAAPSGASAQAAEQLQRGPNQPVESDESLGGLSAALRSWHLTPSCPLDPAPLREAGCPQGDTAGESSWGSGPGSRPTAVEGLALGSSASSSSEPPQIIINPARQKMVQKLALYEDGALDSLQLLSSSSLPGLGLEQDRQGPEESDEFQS
Experimental: as §1, §2, §3

[9] = biological target: HIPK1 (Homo sapiens, UniProt Q86Z02); conditions: HIPK1, 1µM; read-out: %Remaining activity at 1µM NU6300
Experimental: as §1, §2, §3

[10] = biological target: CK2 (Homo sapiens, UniProt P68400); conditions: CK2, 1µM; read-out: %Remaining activity at 1µM NU6300
Experimental: as §1, §2, §3

[11] = biological target: FGF-R1 (Homo sapiens, UniProt P11362); conditions: FGF-R1, 1µM; read-out: %Remaining activity at 1µM NU6300
Sequence of FGF-R1 (P11362 22-822): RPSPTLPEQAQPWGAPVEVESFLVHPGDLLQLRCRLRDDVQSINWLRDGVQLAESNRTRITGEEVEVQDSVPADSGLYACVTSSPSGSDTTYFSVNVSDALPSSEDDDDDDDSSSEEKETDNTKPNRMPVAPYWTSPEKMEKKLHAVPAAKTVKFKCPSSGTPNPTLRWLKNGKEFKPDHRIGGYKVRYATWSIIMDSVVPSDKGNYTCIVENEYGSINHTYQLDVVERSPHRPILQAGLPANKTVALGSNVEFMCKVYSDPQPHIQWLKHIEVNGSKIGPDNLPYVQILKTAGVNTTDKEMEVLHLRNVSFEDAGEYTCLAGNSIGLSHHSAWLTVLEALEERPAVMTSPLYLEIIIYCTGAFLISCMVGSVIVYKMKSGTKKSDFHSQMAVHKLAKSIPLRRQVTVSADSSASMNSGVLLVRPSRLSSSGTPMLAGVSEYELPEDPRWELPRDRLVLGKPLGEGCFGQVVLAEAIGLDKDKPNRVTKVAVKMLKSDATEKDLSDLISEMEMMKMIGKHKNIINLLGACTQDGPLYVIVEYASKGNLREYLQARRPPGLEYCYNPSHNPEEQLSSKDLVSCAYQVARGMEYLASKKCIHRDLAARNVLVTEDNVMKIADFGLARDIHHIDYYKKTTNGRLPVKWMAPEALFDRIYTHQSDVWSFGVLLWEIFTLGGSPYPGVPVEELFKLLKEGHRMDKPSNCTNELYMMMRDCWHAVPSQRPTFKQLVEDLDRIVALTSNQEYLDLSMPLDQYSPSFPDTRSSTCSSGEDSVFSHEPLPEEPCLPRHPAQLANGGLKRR
Experimental: as §1, §2, §3

[12] = biological target: DYRK3 (Homo sapiens, UniProt O43781); conditions: DYRK3, 1µM; read-out: %Remaining activity at 1µM NU6300
Sequence of DYRK3 (O43781 whole entry): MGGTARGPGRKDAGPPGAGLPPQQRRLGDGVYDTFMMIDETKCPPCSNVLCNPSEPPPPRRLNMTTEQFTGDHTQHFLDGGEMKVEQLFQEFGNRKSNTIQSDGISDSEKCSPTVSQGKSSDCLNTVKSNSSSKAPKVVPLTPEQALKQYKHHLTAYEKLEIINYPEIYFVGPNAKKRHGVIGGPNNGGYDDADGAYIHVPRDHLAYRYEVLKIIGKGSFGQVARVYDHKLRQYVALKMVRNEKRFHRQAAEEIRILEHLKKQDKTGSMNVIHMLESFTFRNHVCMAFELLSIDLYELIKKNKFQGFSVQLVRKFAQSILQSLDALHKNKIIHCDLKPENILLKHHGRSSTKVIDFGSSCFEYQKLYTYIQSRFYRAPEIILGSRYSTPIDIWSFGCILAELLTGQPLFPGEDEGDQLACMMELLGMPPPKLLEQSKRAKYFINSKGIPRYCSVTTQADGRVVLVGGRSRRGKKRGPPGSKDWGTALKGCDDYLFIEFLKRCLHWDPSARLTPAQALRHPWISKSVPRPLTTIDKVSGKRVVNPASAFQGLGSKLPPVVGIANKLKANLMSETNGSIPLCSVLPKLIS
Experimental: as §1, §2, §3

Sequence of PRAK (Q8IW41 whole entry): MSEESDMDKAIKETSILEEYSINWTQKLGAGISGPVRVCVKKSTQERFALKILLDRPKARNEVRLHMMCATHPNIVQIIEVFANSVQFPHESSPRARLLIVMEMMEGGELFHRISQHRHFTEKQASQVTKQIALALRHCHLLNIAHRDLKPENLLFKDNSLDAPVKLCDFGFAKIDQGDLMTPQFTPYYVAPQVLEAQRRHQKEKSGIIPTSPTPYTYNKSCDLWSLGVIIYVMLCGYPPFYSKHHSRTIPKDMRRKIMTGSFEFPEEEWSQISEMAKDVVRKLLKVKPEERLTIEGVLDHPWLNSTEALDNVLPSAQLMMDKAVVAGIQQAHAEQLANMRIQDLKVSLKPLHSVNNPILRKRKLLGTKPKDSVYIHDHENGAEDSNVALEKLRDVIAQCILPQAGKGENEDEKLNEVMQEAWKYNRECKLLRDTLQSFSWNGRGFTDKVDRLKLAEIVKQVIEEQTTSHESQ

SMILES: C=CS(=O)(=O)c1ccc(Nc2nc(OCC3CCCCC3)c3nc[nH]c3n2)cc1 [NU6300, 6-(cyclohexylmethoxy)-N-(4-(vinylsulfonyl)phenyl)-9H-purin-2-amine]
- remaining activity at 1 µM [1]: 77%
- remaining activity at 1 µM [2]: 73%
- remaining activity at 1 µM [3]: 76%
- remaining activity at 1 µM [4]: 14%
- remaining activity at 1 µM [5]: 85%
- remaining activity at 1 µM [6]: 102%
- remaining activity at 1 µM [7]: 93%
- remaining activity at 1 µM [8]: 37%
- remaining activity at 1 µM [9]: 93%
- remaining activity at 1 µM [10]: 91%
- remaining activity at 1 µM [11]: 62%
- remaining activity at 1 µM [12]: 91%
